Test: Solubility in cyclopentanone
Type: physicochemical
Settings: solvent cyclopentanone
Procedure: For Compounds (1) to (8) thus synthesized, solubility in cyclopentanone was measured.

| Structure (SMILES) | Solubility in cyclopentanone [% by mass] |
| --- | --- |
| CCCCCC(=O)OCCCCOC(=O)c1ccc(/N=N/c2cc3sc(/N=N/c4ccc(N(CC)CC)cc4)nc3s2)cc1 [Compound (5)] | 1.2 |
| CCCCOC(=O)CCC(=O)OCCc1ccc(/N=N/c2cc3sc(/N=N/c4ccc(N(CC)CC)cc4)nc3s2)cc1 [Compound (1)] | 1.6 |
| CCN(CC)c1ccc(/N=N/c2nc3sc(/N=N/c4ccc(CCC(=O)OCCC(C)CCCC(C)C)cc4)cc3s2)cc1 (centres unmarked) [Compound (2)] | 4.5 |
| CCCOC(=O)c1ccc(/N=N/c2cc3sc(/N=N/c4ccc(N(CC)CC)cc4)nc3s2)cc1 [Compound (7), reference compound] | 0.19 |
| CCN(CC)c1ccc(/N=N/c2nc3sc(/N=N/c4ccc(CCOC(=O)CCC(=O)OCCC(C)CCCC(C)C)cc4)cc3s2)cc1 (centres unmarked) [Compound (4)] | 5.4 |

Now from value to compound:

| Solubility in cyclopentanone [% by mass] | Structure (SMILES) |
| --- | --- |
| 0.59 | CCCCCCCCCCCCc1ccc(/N=N/c2cc3sc(/N=N/c4ccc(N(CC)CC)cc4)nc3s2)cc1 [Compound (6), reference compound] |
| 0.50 | CCCCCCCCCC(=O)OCCc1ccc(/N=N/c2cc3sc(/N=N/c4ccc(N(CC)CC)cc4)nc3s2)cc1 [Compound (8), reference compound] |
| 6.0 | CCCCC(CC)C(=O)OCCc1ccc(/N=N/c2cc3sc(/N=N/c4ccc(N(CC)CC)cc4)nc3s2)cc1 (centres unmarked) [Compound (3)] |

— patent US20180265707A1, “DICHROIC DYE COMPOUND, DICHROIC DYE COMPOSITION, LIGHT-ABSORBING ANISOTROPIC FILM, POLARIZING ELEMENT, AND IMAGE DISPLAY DEVICE” (FUJIFILM Corporation, priority 2015, published 2018)
